Measurements as given in patent US20200261391A1, “METHODS OF REDUCING THE RISK OF A CARDIOVASCULAR EVENT IN A STATIN-TREATED SUBJECT BY INCREASING SERUM AND PLASMA EPA AND DPA LEVELS” (Amarin Pharmaceuticals Ireland Limited, priority 2019, published 2020).
“And” between values parts separate entries of the source, which are not always exact repeats. Equal entries are not always repeated.

Tested on: patients with elevated triglyceride levels on statin therapy with established cardiovascular disease or at high risk
Test: REDUCE-IT trial: time to first occurrence of adjudicated cardiovascular endpoint events, AMR101 4 g daily vs placebo
Type: in vivo, human
Source text: The following study, also referred to as the REDUCE-IT clinical trial, was a large cardiovascular (CV) outcome trial designed to assess CV risk reduction benefit of AMR101 treatment (commercially known as VASCEPA®) versus placebo on the 5-point primary composite endpoint: CV death, non-fatal stroke, non-fatal myocardial infarction (MI), coronary revascularizations, or unstable angina requiring hospitalization.
A multi-center, prospective, randomized, double-blind, placebo-controlled, parallel-group study was performed to evaluate the effect of AMR101 (4 g per day) on cardiovascular health and mortality in hypertriglyceridemic patients with cardiovascular disease or at high risk for cardiovascular disease. The intended expanded indication of the study was treatment with AMR101 as an add-on to statin therapy to reduce the risk of cardiovascular events in patients with clinical cardiovascular disease or with multiple risk factors for cardiovascular disease.
The primary objective of this study was, in patients at LDL-C goal while on statin therapy, with established cardiovascular disease (CVD) or at high risk for CVD, and hypertriglyceridemia (e.g., fasting triglycerides(TG)≥200 mg/dL and <500 mg/dL), to evaluate the effect of AMR101 4 g daily on time from randomization to first occurrence of any component of the composite of the following major CV events: CV death; nonfatal MI; (including silent MI; electrocardiograms (ECGs) were performed annually for the detection of silent MIs); nonfatal stroke; coronary revascularization; and unstable angina determined to be caused by myocardial ischemia by invasive/non-invasive testing and requiring emergent hospitalization.
The key secondary objective of this study was to evaluate the effect of AMR101 4 g daily on the time from randomization to the first occurrence of the composite of following major CV events: CV death, nonfatal MI (including silent MI), and nonfatal stroke.
Other secondary objectives for this study were to evaluate the effect of therapy on time from randomization to the first occurrence of the following individual or composite endpoints: composite of CV death or nonfatal MI (including silent MI); fatal or nonfatal MI (including silent MI); non-elective coronary revascularization represented as the composite of emergent or urgent classifications; CV death; unstable angina determined to be caused by myocardial ischemia by invasive/non-invasive testing and requiring emergent hospitalization; fatal or nonfatal stroke; composite of total mortality, nonfatal MI (including silent MI), or nonfatal stroke; and total mortality.
Primary Efficacy Endpoint: The primary efficacy endpoint was time from randomization to the first occurrence of the composite of the following clinical events: CV death; nonfatal MI (including silent MI; ECGs were performed annually for the detection of silent MIs); nonfatal stroke; coronary revascularization; and unstable angina determined to be caused by myocardial ischemia by invasive/non-invasive testing and requiring emergent hospitalization. The first occurrence of any of these major adverse vascular events during the follow-up period of the study were included in the incidence.
Secondary Efficacy Endpoints: The key secondary efficacy endpoint was the time from randomization to the first occurrence of the composite of CV death, nonfatal MI (including silent MI), or nonfatal stroke. […]

[1] = adjudicated tertiary endpoint, listed as AMR101
[2] = adjudicated tertiary endpoint, listed as Icosapent Ethyl
[3] = vs placebo, median follow up 4.9 years
[4] = vs placebo, time to first event
[5] = vs placebo, time to first occurrence

## CC/C=C\C/C=C\C/C=C\C/C=C\C/C=C\CCCC(=O)OCC [icosapent ethyl, eicosapentaenoic acid ethyl ester]
Adjudicated tertiary endpoint
  Amputation for PVD, patients with event: (0.5%)
  Cardiac Arrest, patients with event: (0.5%)
  Cardiac Arrhythmias Requiring Hospitalization of ≥24 Hours, patients with event: (4.6%)
  Carotid Revascularization, patients with event: (0.8%)
  Coronary Revascularization, patients with event: (9.2%)
  Elective Revascularization, patients with event: (4.7%)
  Emergent Revascularization, patients with event: (1.0%)
  Ischemic Stroke, patients with event: (2.0%)
  New Heart Failure Requiring Hospitalization, patients with event: (3.4%)
  Primary Endpoint in Patients with Diabetes at Baseline, patients with event: (18.1%)
  Salvage Revascularization, patients with event: (0.0%)
  Sudden Cardiac Death, patients with event: 1.5%
  Transient Ischemic Attack, patients with event: (1.6%)
  Urgent Revascularization, patients with event: (4.4%)
[1]
  Hemorrhagic Stroke, patients with event: 0.3%
  New Heart Failure, patients with event: 4.1%
[2]
  Hemorrhagic Stroke, patients with event: (0.3%)
  New Heart Failure, patients with event: (4.1%)
  Sudden Cardiac Death, patients with event: (1.5%)
First occurrence of CV death, nonfatal MI or nonfatal stroke, median follow up 4.9 years
  key secondary composite endpoint, patients with event: 11.2%
First occurrence of CV death, nonfatal MI, nonfatal stroke, coronary revascularization or unstable angina, median follow up 4.9 years
  primary composite endpoint, patients with event: 17.2%
In vivo
  cardiovascular death, patients with event: 4.3%
  total mortality, patients with event: 6.7%
Median follow up 4.9 years
  key secondary composite endpoint, number needed to treat: 28
  primary composite endpoint, number needed to treat: 21
Patients with diabetes at baseline excluded
  New Onset of Diabetes, patients with event: (3.8%)
Vs placebo
  Amputation for PVD, HR: 1.04
  Cardiac Arrest, HR: 0.52
  Cardiac Arrhythmias Requiring Hospitalization of ≥24 Hours, HR: 1.21
  Carotid Revascularization, HR: 1.18
  Coronary Revascularization, HR: 0.66
  Elective Revascularization, HR: 0.68
  Emergent Revascularization, HR: 0.62
  Hemorrhagic Stroke, HR: 1.28
  Ischemic Stroke, HR: 0.64
  New Heart Failure Requiring Hospitalization, HR: 0.97
  New Heart Failure, HR: 0.95
  Primary Endpoint in Patients with Diabetes at Baseline, HR: 0.77
  Salvage Revascularization, HR: 0.00
  Sudden Cardiac Death, HR: 0.69
  Transient Ischemic Attack, HR: 1.32
  Urgent Revascularization, HR: 0.66
  cardiac arrest, reduction: 48%
  cardiovascular death, HR: 0.80
  cardiovascular death, relative risk reduction: 20%
  composite of cardiovascular death or nonfatal myocardial infarction, RRR: 25%
  composite of total mortality, nonfatal myocardial infarction, or nonfatal stroke, RRR: 23%
  fatal or nonfatal myocardial infarction, RRR: 31%
  fatal or nonfatal stroke, RRR: 28%
  hospitalization for unstable angina, RRR: 32%
  myocardial infarction, HR: 0.69
  primary endpoint risk reduction, post hoc analysis excluding patients with diarrhea: 25%
  stroke, HR: 0.72
  sudden cardiac death, reduction: 31%
  total mortality, HR: 0.87
  total mortality, relative risk reduction: 13%
  urgent or emergent revascularization, RRR: 35%
[3]
  key secondary composite endpoint, absolute risk reduction: 3.6%
  primary composite endpoint, absolute risk reduction: 4.8%
Vs placebo, patients with diabetes at baseline excluded
  New Onset of Diabetes, HR: 1.04
[4]
  key secondary composite endpoint, relative risk reduction: 26% and 26.5%
  primary composite endpoint, relative risk reduction: 25% and 24.8%
[5]
  key secondary composite endpoint, HR: 0.74
  primary composite endpoint, HR: 0.75
